According to US9556201B2, “Bicyclic pyridines and analogs as sirtuin modulators” (GLAXOSMITHKLINE LLC, priority 2009, dated 2017):

Molecular target: T1, SIRT1 (Homo sapiens, UniProt Q96EB6)
T1 sequence (Q96EB6 1-747): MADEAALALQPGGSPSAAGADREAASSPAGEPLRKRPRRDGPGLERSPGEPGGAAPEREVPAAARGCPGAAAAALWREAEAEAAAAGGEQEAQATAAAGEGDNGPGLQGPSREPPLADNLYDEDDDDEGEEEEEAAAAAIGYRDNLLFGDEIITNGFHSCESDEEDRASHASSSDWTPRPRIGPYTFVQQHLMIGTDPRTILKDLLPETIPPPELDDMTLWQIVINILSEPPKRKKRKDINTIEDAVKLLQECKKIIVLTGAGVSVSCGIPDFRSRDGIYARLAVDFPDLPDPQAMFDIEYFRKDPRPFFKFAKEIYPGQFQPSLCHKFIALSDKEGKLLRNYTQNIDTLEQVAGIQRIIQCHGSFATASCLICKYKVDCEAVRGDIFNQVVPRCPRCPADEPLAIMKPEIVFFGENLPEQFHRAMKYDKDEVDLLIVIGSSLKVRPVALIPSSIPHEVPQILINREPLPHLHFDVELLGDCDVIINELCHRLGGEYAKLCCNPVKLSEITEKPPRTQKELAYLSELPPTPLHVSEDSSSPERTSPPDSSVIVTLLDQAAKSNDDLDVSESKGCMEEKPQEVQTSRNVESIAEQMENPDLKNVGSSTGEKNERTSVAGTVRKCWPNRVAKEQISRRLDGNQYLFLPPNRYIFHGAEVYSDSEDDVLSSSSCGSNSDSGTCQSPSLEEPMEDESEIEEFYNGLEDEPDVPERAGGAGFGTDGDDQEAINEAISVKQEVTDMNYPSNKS
Assay: Mass spectrometry based assay to identify modulators of SIRT1 activity (deacetylation of p53-based acetylated peptide substrate)
Format: biochemical
Conditions: for Emax: 25 min, read-out: % FOLD ACT. (percent maximum fold activation); for Emax / EC1.5: SIRT1 activation
Procedure, shortened: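 His-tagged human SIRT1 (10 nM, E. coli) incubated 25 min at 25 °C with […] p53-derived acetylated 5TMR peptide and 120 μM βNAD+ in pH 8 Tris-acetate buffer, then formic acid-stopped. Mass spectrometry quantifies acetylated vs deacetylated peptide; nicotinamide and DMSO controls.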

Emax [%]	EC1.5	EC1.5 (concentration giving 1.5-fold activation) [µM]	Compound
≤ 200	C (EC1.5>25 μM)	–	O=C(Nc1ncc(CN2CCCC2)s1)N1CCOc2ccc(-c3cccc(C(F)(F)F)c3)nc21 [Compound 505, N-(5-(pyrrolidin-1-ylmethyl)thiazol-2-yl)-6-(3-(trifluoromethyl)phenyl)-2H-pyrido[3,2-b][1,4]oxazine-4(3H)-carboxamide]
> 200	A (EC1.5<1.0 μM)	–	O=C(Nc1ccncc1)N1CCOc2ccc(-c3ccccc3)nc21 [Compound 673]
> 200	–	1 to 25	O=C(Nc1cncnc1)N1CCCOc2ccc(-c3cccc(Cl)c3)nc21 [Compound 852]
> 200	A (EC1.5<1.0 μM)	–	O=C(Nc1nccs1)N1CCOc2ccc(-c3cccc(C(F)(F)F)c3)nc21 [Compound 500, N-(thiazol-2-yl)-6-(3-(trifluoromethyl)phenyl)-2H-pyrido[3,2-b][1,4]oxazine-4(3H)-carboxamide]
> 200	B (EC1.5 1-25 μM)	–	Cc1cc(-c2ccc3c(n2)N(C(=O)Nc2nc(C)cs2)CCCO3)ccn1 [Compound 676]
> 200	–	1 to 25	O=C(Nc1ccncc1)N1CCCCc2ccc(-c3cccc(Cl)c3)nc21 [Compound 728, 2-(3-chlorophenyl)-N-(pyridin-4-yl)-7,8-dihydro-5H-pyrido[2,3-b]azepine-9(6H)-carboxamide]
≤ 200	–	> 25	Cc1csc(NC(=O)N2CCCC(F)(F)c3ccc(-c4cccc(Cl)c4)nc32)n1 [Compound 779]
> 200	B (EC1.5 1-25 μM)	–	O=C(Nc1ncccn1)N1CCCOc2ccc(-c3cccc(C(F)(F)F)c3)nc21 [Compound 643]
> 200	B (EC1.5 1-25 μM)	–	O=C(Nc1ncc(F)cc1F)N1CCOc2ccc(-c3cccc(C(F)(F)F)c3)nc21 [Compound 567]
> 200	A (EC1.5<1.0 μM)	–	Cc1ccc(NC(=O)N2CCOc3ccc(-c4cccc(C(F)(F)F)c4)nc32)cn1 [Compound 554]
≤ 200	–	> 25	O=C(Nc1ccccn1)N1CCC(F)(F)c2ccc(-c3cccc(C(F)(F)F)c3)nc21 [Compound 814, 4,4-difluoro-N-(pyridin-2-yl)-7-(3-(trifluoromethyl)phenyl)-3,4-dihydro-1,8-naphthyridine-1(2H)-carboxamide]
≤ 200	B (EC1.5 1-25 μM)	–	CN1C(=O)CN(C(=O)Nc2nccs2)c2nc(-c3cccc(C(F)(F)F)c3)ccc21 [Compound 520, 1-methyl-2-oxo-N-(thiazol-2-yl)-6-(3-(trifluoromethyl)phenyl)-2,3-dihydropyrido[2,3-b]pyrazine-4(1H)-carboxamide]
> 200	–	1 to 25	Cn1cc(NC(=O)N2CCCOc3ccc(-c4cccc(Cl)c4)nc32)cn1 [Compound 708]
≤ 200	–	> 25	O=C(Nc1cccnc1)N1CCCC(F)(F)c2ccc(-c3cccc(Cl)c3)nc21 [Compound 771]
> 200	B (EC1.5 1-25 μM)	–	CN(C)Cc1cccc(-c2ccc3c(n2)N(C(=O)Nc2cccnc2)CC(C)(C)O3)c1 [Compound 677, 6-(3-((dimethylamino)methyl)phenyl)-2,2-dimethyl-N-(pyridin-3-yl)-2H-pyrido[3,2-b][1,4]oxazine-4(3H)-carboxamide]
> 200	B (EC1.5 1-25 μM)	–	O=C(Nc1ccncn1)N1CCCOc2ccc(-c3cccc(N4CCCC4)c3)nc21 [Compound 627]
> 200	–	1 to 25	O=C(Nc1ccncn1)N1CCCCc2ccc(-c3cccc(C(F)(F)F)c3)nc21 [Compound 815]
> 200	–	1 to 25	O=C(Nc1cncc(F)c1)N1CCCOc2ccc(-c3cccc(Cl)c3)nc21 [Compound 853]
> 200	–	1 to 25	O=C(Nc1ccncc1)N1CCCOc2ccc(-c3cccc(Cl)c3)nc21 [Compound 856]
≤ 200	–	> 25	Cc1cc(C)nc(NC(=O)N2CCOc3cnc(-c4cccc(C(F)(F)F)c4)nc32)c1 [Compound 712]
≤ 200	–	> 25	O=C(Nc1ccc(F)cn1)N1CCCCc2ccc(-c3cccc(C(F)(F)F)c3)nc21 [Compound 816]
≤ 200	–	1 to 25	Cc1cnc(NC(=O)N2CCCOc3ccc(-c4cccc(Cl)c4)nc32)s1 [Compound 704]
> 200	B (EC1.5 1-25 μM)	–	Cc1cc(NC(=O)N2CCCOc3ccc(-c4cccc(C(F)(F)F)c4)nc32)ccn1 [Compound 577]

Emax [%]	EC1.5	EC1.5 (concentration giving 1.5-fold activation) [µM]	Compound
≤ 200	B (EC1.5 1-25 μM)	–	O=C(c1ccnc(OCC(O)CO)c1)N1CCOc2ccc(-c3cccc(C(F)(F)F)c3)nc21 (centres unmarked) [Compound 518, (2-(2,3-dihydroxypropoxy)pyridin-4-yl)(6-(3-(trifluoromethyl)phenyl)-2H-pyrido[3,2-b][1,4]oxazin-4(3H)-yl)methanone]
> 200	A (EC1.5<1.0 μM)	–	Cc1cc(-c2cccc(Cl)c2)nc2c1OCCN2C(=O)Nc1ccncc1F [Compound 687]
≤ 200	–	1 to 25	O=C(Nc1ccc(F)cn1)N1CCCOc2ccc(-c3cccc(Cl)c3)nc21 [Compound 762]
≤ 200	–	1 to 25	O=C1CCN(C(=O)Nc2ccc(F)cn2)c2nc(-c3cccc(C(F)(F)F)c3)ccc21 [Compound 730]
≤ 200	B (EC1.5 1-25 μM)	–	Cc1ncccc1NC(=O)N1CCOc2ccc(-c3cccc(C(F)(F)F)c3)nc21 [Compound 555]
> 200	–	1 to 25	O=C(Nc1ccncn1)N1CCOc2c(N3CCNCC3)nc(-c3cccc(F)c3)nc21 [Compound 759]
≤ 200	–	1 to 25	COc1nccc(NC(=O)N2CCCCc3ccc(-c4cccc(C(F)(F)F)c4)nc32)n1 [Compound 811]
> 200	–	< 1	CC1(C)CCN(C(=O)Nc2cc(OCC(O)CO)ccn2)c2nc(-c3cccc(C(F)(F)F)c3)ccc21 (centres unmarked) [Compound 846]
≤ 200	–	> 25	Cc1cccc(NC(=O)N2CCCCc3ccc(-c4cccc(C(F)(F)F)c4)nc32)n1 [Compound 818]
≤ 200	C (EC1.5>25 μM)	–	O=C(Nc1ccncn1)N1CCOc2ccc(-c3cccnc3)nc21 [Compound 516]
≤ 200	–	1 to 25	O=C(Nc1ccccn1)N1CCCCc2ccc(-c3cccc(C(F)(F)F)c3)nc21 [Compound 812]
≤ 200	–	1 to 25	Cc1cc(OCC(O)CO)nc(NC(=O)N2CCOc3ccc(-c4cccc(C(F)(F)F)c4)nc32)n1 (centres unmarked) [Compound 698]
> 200	B (EC1.5 1-25 μM)	–	O=C(Nc1ncccn1)N1CCCc2ccc(-c3cccc(Cl)c3)nc21 [Compound 667]
> 200	A (EC1.5<1.0 μM)	–	O=C(Nc1ncccn1)N1CCCc2ccc(-c3cccc(C(F)(F)F)c3)nc21 [Compound 666]
> 200	–	< 1	O=C(Nc1cccc(OCC(O)CO)c1)N1CCC(F)(F)c2ccc(-c3cccc(C(F)(F)F)c3)nc21 (centres unmarked) [Compound 841]
≤ 200	–	1 to 25	Cc1csc(NC(=O)N2CCC(C)(C)C(=O)c3ccc(-c4cccc(Cl)c4)nc32)n1 [Compound 837]
> 200	B (EC1.5 1-25 μM)	–	Cc1cncc(NC(=O)N2CCCOc3ccc(-c4cccc(F)c4)nc32)c1 [Compound 581]
> 200	B (EC1.5 1-25 μM)	–	Cc1cc(OCC(O)CO)nc(NC(=O)N2CCCc3ccc(-c4cccc(C(F)(F)F)c4)nc32)n1 (centres unmarked) [Compound 640]
≤ 200	–	> 25	Cc1csc(NC(=O)N2CCOc3cnc(-c4cccc(C(F)(F)F)c4)nc32)n1 [Compound 709, N-(4-methylthiazol-2-yl)-2-(3-(trifluoromethyl)phenyl)-6H-pyrimido[5,4-b][1,4]oxazine-8(7H)-carboxamide]
> 200	A (EC1.5<1.0 μM)	–	O=C(Nc1ccncn1)N1CCCOc2ccc(-c3cccc(Cl)c3)nc21 [Compound 625]
≤ 200	C (EC1.5>25 μM)	–	CC1(C)CC(NC(=O)N2CCOc3ccc(-c4cccc(C(F)(F)F)c4)nc32)CC(C)(C)N1 [Compound 634]
> 200	A (EC1.5<1.0 μM)	–	CN1C(=O)CN(C(=O)Nc2cccc(N3CCOCC3)n2)c2nc(-c3cccc(C(F)(F)F)c3)ccc21 [Compound 563]
≤ 200	–	> 25	CCN1CCCN(C(=O)Nc2cccc(C)n2)c2nc(-c3cccc(Cl)c3)ccc21 [Compound 797]
